In US6914045B2, “Glycopeptide antibiotics” (Wyeth Holdings Corporation, priority 2001, dated 2005):
≈ marks a conversion by molar mass, not a printed value.

Assays:
[1] = test system: Staphylococcus aureus-SMITH (GC 4543); test: acute lethal infection in mice; assay type: in vivo; conditions: acute lethal infection, female CD-1 mice, intraperitoneal challenge, intravenous 30 min. after infection, 7 day survival
How it was run: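 Female CD-1 mice (20±2 g) got an intraperitoneal bacterial challenge lethal to untreated controls within 24–48 hr. Compound was dosed intravenously 30 min after infection, five mice per dose. ED50 was calculated from 7-day survival pooled across 3 tests.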

[2] = test system: Staphylococcus sp.; test: in vitro antibacterial evaluation, MIC by broth dilution; assay type: cell-based; conditions: broth dilution, 18 hours at 35° C.
How it was run: (§1)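 Inoculum 5×10^5 CFU/mL; concentrations 64 to 0.06 μg/mL; MIC defined as lowest inhibitory level. Conducted by broth dilution under NCCLS guidelines.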

[3] = test system: Streptococcus sp.; test: as above; assay type: cell-based; conditions: broth dilution, 18 hours at 35° C.
How it was run: as §1

[4] = test system: Escherichia coli; test: as above; assay type: cell-based; conditions: 18 hours at 35° C.
How it was run: as §1

[5] = test system: Enterococcus sp.; test: as above; assay type: cell-based; conditions: broth dilution, 18 hours at 35° C.
How it was run: as §1

Structure (SMILES): COc1ccc(CC2OCC3OC(OC4C(CO)OC(Oc5ccc(CC6NC(=O)C(C(C)c7ccccc7)NC(=O)CNC(=O)C(CO)NC(=O)C(C(O)C7CNC(=N)N7C7OC(CO)C(O)C(O)C7O)NC(=O)C(C(O)C7CNC(=N)N7)NC6=O)cc5)C(O)C4O)C(O)C(O)C3O2)cc1 (stereo not drawn) [Example 103, Cyco[glycyl-β-methylphenylalanyl-O-[4-O-[4,6-O-(4-methoxyphenethylidene)hexopyranosyl]-hexopyranosyl]tyrosyl-3-(2-iminoimidazolidin-4-yl)seryl-3-(3-hexopyranosyl-2-iminoimidazolidin-4-yl)serylseryl]]
- median effective dose (ED50), Staphylococcus aureus-SMITH (GC 4543) [1]: 0.28 mg/kg
- MIC Coagulase Negative Staphylococcus (GC 4547) [2]: 2 µg/mL (≈ 1.4 µM)
- MIC Coagulase Negative Staphylococcus (GC 4548) [2]: 1 µg/mL (≈ 0.701 µM)
- MIC Coagulase Negative Staphylococcus (GC 4549) [2]: 1 µg/mL (≈ 0.701 µM)
- MIC Coagulase Negative Staphylococcus (GC 4551) [2]: 2 µg/mL (≈ 1.4 µM)
- MIC Coagulase Negative Staphylococcus (GC 6257) [2]: 1 µg/mL (≈ 0.701 µM)
- MIC Staphylococcus aureus (ATCC 29213) [2]: 2 µg/mL (≈ 1.4 µM)
- MIC Staphylococcus aureus (GC 1131) [2]: 2 µg/mL (≈ 1.4 µM)
- MIC Staphylococcus aureus (GC 3051) [2]: 1 µg/mL (≈ 0.701 µM)
- MIC Staphylococcus aureus (GC 3053) [2]: 2 µg/mL (≈ 1.4 µM)
- MIC Staphylococcus aureus (GC 4541) [2]: 2 µg/mL (≈ 1.4 µM)
- MIC Staphylococcus aureus (GC 4542) [2]: 2 µg/mL (≈ 1.4 µM)
- MIC Staphylococcus aureus (GC 4544) [2]: 2 µg/mL (≈ 1.4 µM)
- MIC Staphylococcus aureus (GC 4545) [2]: 1 µg/mL (≈ 0.701 µM)
- MIC Staphylococcus aureus-SMITH (GC 4543) [2]: 1 µg/mL (≈ 0.701 µM)
- MIC Staphylococcus haemolyticus (GC 4546) [2]: 1 µg/mL (≈ 0.701 µM)
- MIC Staphylococcus haemolyticus (GC 4546) ([2]; strain GC 4546): 1 µg/mL (≈ 0.701 µM)
- MIC Coagulase Negative Staphylococcus (GC 4547) ([2]; strain GC 4547): 2 µg/mL (≈ 1.4 µM)
- MIC Coagulase Negative Staphylococcus (GC 4548) ([2]; strain GC 4548): 1 µg/mL (≈ 0.701 µM)
- MIC Coagulase Negative Staphylococcus (GC 4549) ([2]; strain GC 4549): 1 µg/mL (≈ 0.701 µM)
- MIC Coagulase Negative Staphylococcus (GC 4551) ([2]; strain GC 4551): 2 µg/mL (≈ 1.4 µM)
- MIC Coagulase Negative Staphylococcus (GC 6257) ([2]; strain GC 6257): 1 µg/mL (≈ 0.701 µM)
- MIC Staphylococcus aureus-SMITH (GC 4543) ([2]; strain SMITH GC 4543): 1 µg/mL (≈ 0.701 µM)
- MIC Staphylococcus aureus (ATCC 29213) ([2]; strain ATCC 29213): 2 µg/mL (≈ 1.4 µM)
- MIC Staphylococcus aureus (GC 1131) ([2]; strain GC 1131): 2 µg/mL (≈ 1.4 µM)
- MIC Staphylococcus aureus (GC 3051) ([2]; strain GC 3051): 1 µg/mL (≈ 0.701 µM)
- MIC Staphylococcus aureus (GC 3053) ([2]; strain GC 3053): 2 µg/mL (≈ 1.4 µM)
- MIC Staphylococcus aureus (GC 4541) ([2]; strain GC 4541): 2 µg/mL (≈ 1.4 µM)
- MIC Staphylococcus aureus (GC 4542) ([2]; strain GC 4542): 2 µg/mL (≈ 1.4 µM)
- MIC Staphylococcus aureus (GC 4544) ([2]; strain GC 4544): 2 µg/mL (≈ 1.4 µM)
- MIC Staphylococcus aureus (GC 4545) ([2]; strain GC 4545): 1 µg/mL (≈ 0.701 µM)
- MIC Streptococcus agalactiae (GC 4564) ([3]; Streptococcus agalactiae (GC 4564)): 0.5 µg/mL (≈ 0.35 µM)
- MIC Streptococcus pneumoniae (ATCC 6301) ([3]; Streptococcus pneumoniae (ATCC 6301)): 0.12 µg/mL (≈ 0.0841 µM)
- MIC Streptococcus pneumoniae (GC 1894) ([3]; Streptococcus pneumoniae (GC 1894)): 0.12 µg/mL (≈ 0.0841 µM)
- MIC Streptococcus pneumoniae (GC 4565) ([3]; Streptococcus pneumoniae (GC 4565)): 0.12 µg/mL (≈ 0.0841 µM)
- MIC Streptococcus pyogenes (GC 4563) ([3]; Streptococcus pyogenes (GC 4563)): 0.25 µg/mL (≈ 0.175 µM)
- MIC Streptococcus pneumoniae (ATCC 6301) ([3]; strain ATCC 6301): 0.12 µg/mL (≈ 0.0841 µM)
- MIC Streptococcus pneumoniae (GC 1894) ([3]; strain GC 1894): 0.12 µg/mL (≈ 0.0841 µM)
- MIC Streptococcus pyogenes (GC 4563) ([3]; strain GC 4563): 0.25 µg/mL (≈ 0.175 µM)
- MIC Streptococcus agalactiae (GC 4564) ([3]; strain GC 4564): 0.5 µg/mL (≈ 0.35 µM)
- MIC Streptococcus pneumoniae (GC 4565) ([3]; strain GC 4565): 0.12 µg/mL (≈ 0.0841 µM)
- MIC Escherichia coli (ATCC 25922) ([4]; strain ATCC 25922): 64 µg/mL (≈ 44.8 µM)
- MIC Escherichia coli (GC 4559) ([4]; strain GC 4559): 64 µg/mL (≈ 44.8 µM)
- MIC Escherichia coli (GC 4560) ([4]; strain GC 4560): 1 µg/mL (≈ 0.701 µM)
- MIC Enterococcus avium (GC 4558) ([5]; Enterococcus avium (GC 4558)): 8 µg/mL (≈ 5.6 µM)
- MIC Enterococcus faecalis (ATCC 29212) ([5]; Enterococcus faecalis (ATCC 29212)): 4 µg/mL (≈ 2.8 µM)
- MIC Enterococcus faecalis (GC 2242) ([5]; Enterococcus faecalis (GC 2242)): 4 µg/mL (≈ 2.8 µM)
- MIC Enterococcus faecalis (GC 2691) ([5]; Enterococcus faecalis (GC 2691)): 8 µg/mL (≈ 5.6 µM)
- MIC Enterococcus faecalis (GC 3059) ([5]; Enterococcus faecalis (GC 3059)): 8 µg/mL (≈ 5.6 µM)
- MIC Enterococcus faecalis (GC 4552) ([5]; Enterococcus faecalis (GC 4552)): 8 µg/mL (≈ 5.6 µM)
- MIC Enterococcus faecalis (GC 4553) ([5]; Enterococcus faecalis (GC 4553)): 8 µg/mL (≈ 5.6 µM)
- MIC Enterococcus faecalis (GC 4554) ([5]; Enterococcus faecalis (GC 4554)): 8 µg/mL (≈ 5.6 µM)
- MIC Enterococcus faecalis (GC 6189) ([5]; Enterococcus faecalis (GC 6189)): 4 µg/mL (≈ 2.8 µM)
- MIC Enterococcus faecium (GC 2243) ([5]; Enterococcus faecium (GC 2243)): 4 µg/mL (≈ 2.8 µM)
- MIC Enterococcus faecium (GC 4556) ([5]; Enterococcus faecium (GC 4556)): 4 µg/mL (≈ 2.8 µM)
- MIC Enterococcus faecium (GC 4557) ([5]; Enterococcus faecium (GC 4557)): 2 µg/mL (≈ 1.4 µM)
- MIC Enterococcus faecalis (ATCC 29212) ([5]; strain ATCC 29212): 4 µg/mL (≈ 2.8 µM)
- MIC Enterococcus faecalis (GC 2242) ([5]; strain GC 2242): 4 µg/mL (≈ 2.8 µM)
- MIC Enterococcus faecium (GC 2243) ([5]; strain GC 2243): 4 µg/mL (≈ 2.8 µM)
- MIC Enterococcus faecalis (GC 2691) ([5]; strain GC 2691): 8 µg/mL (≈ 5.6 µM)
- MIC Enterococcus faecalis (GC 3059) ([5]; strain GC 3059): 8 µg/mL (≈ 5.6 µM)
- MIC Enterococcus faecalis (GC 4552) ([5]; strain GC 4552): 8 µg/mL (≈ 5.6 µM)
- MIC Enterococcus faecalis (GC 4553) ([5]; strain GC 4553): 8 µg/mL (≈ 5.6 µM)
- MIC Enterococcus faecalis (GC 4554) ([5]; strain GC 4554): 8 µg/mL (≈ 5.6 µM)
- MIC Enterococcus faecium (GC 4556) ([5]; strain GC 4556): 4 µg/mL (≈ 2.8 µM)
- MIC Enterococcus faecium (GC 4557) ([5]; strain GC 4557): 2 µg/mL (≈ 1.4 µM)
- MIC Enterococcus avium (GC 4558) ([5]; strain GC 4558): 8 µg/mL (≈ 5.6 µM)
- MIC Enterococcus faecalis (GC 6189) ([5]; strain GC 6189): 4 µg/mL (≈ 2.8 µM)
